Source: paper PMC11264596, “Auxin-mediated regulation of susceptibility to toxic metabolites, c-di-GMP levels, and phage infection in the rhizobacterium Serratia plymuthica” (mSystems, 2024)

Target: T1, TrpRA153 (AWY96_RS12805) (Serratia plymuthica, UniProt A0A2X4U763)
T1 construct: gene trpR
Test: isothermal titration calorimetry
Assay type: binding

| SMILES | Kd [µM] |
| --- | --- |
| O=C(O)Cc1c[nH]c2ccccc12 [IAA, indole-3-acetic acid] | 326 ± 30 |
| N[C@@H](Cc1c[nH]c2ccccc12)C(=O)O [L-Trp] | 91 ± 3 |
| O=C(O)C(=O)Cc1c[nH]c2ccccc12 [IPA, indole-3-pyruvic acid] | 101 ± 7 |
